The values that follow come from US5436243A, “Aminoanthraquinone derivatives to combat multidrug resistance” (priority 1993, dated 1995).

Where two headings read alike, the source gives them in different places.

The nature of data set [1]: Partition in Bligh-Dyer extracts. It is filed as physicochemical. The conditions noted are these: Bligh-Dyer extracts of treated cells. The protocol:
At these wavelengths, there was minimal absorbance by cellular components contained in the chloroform phase. […] METHOD: […] The monolayers were treated with 25 μM 1b or 1c and incubated at 37° C. After incubating the samples for the times indicated in FIG. 1, the monolayers were washed three times with DPBS and detached using 1 ml of Trypsin-EDTA.An aliquot of the cell suspension was counted using a Coulter Counter and a 0.8 ml aliquot was extracted in a Bligh-Dyer extraction (Bligh et at., Can. J. Biochem. 31:911-916 (1959)). The absorbance of the lower chloroform phase was measured at 648 nm and 600 nm using a spectrophotometer. The amount of 1b or 1c present in the extract was quantitated from a standard curve performed in cell extracts. The data is expressed as nmol anthraquinone/10^6 cells.

The subject of data set [2] is PKC. As to the kind of experiment: PKC inhibition in platelets. It is filed as cell-based.
Data set [3] concerns granulocyte-macrophage progenitors (CFU-GM). Nature of the data set: cells. The conditions noted are these: for IC50: Homo sapiens, CFU-GM, read-out: Continuous Exposure IC50, CFU-GM. The protocol: (§1) Myelosuppression is often a dose limiting side effect of chemotherapeutic agents. […] The toxicities to human granulocyte-macrophage progenitors (CFU-GM) of 1b, 1c, and VLB was assessed by measuring inhibition of CFU-GM proliferation in cultures continuously exposed to each agent alone and compared to the toxicities to sensitive and resistant MCF7 in tumor cell clonogenic assays.
(§2) METHOD: The CFLI-GM assay measures clonal proliferation of granulocyte/macrophage precursors in semisolid agar cultures. The progeny of the granulocyte/macrophage precursors remain in proximity of the progenitor cells and form colonies. Colonies which contain greater than 40 cells after 10-12 days of culture are counted using an inverted phase contrast microscope. The tumor cell clonogenic assays measure clonal proliferation of tumor cells. In this assay, 300-500 cells are plated in 10 cm^2 wells, allowed to adhere overnight, and are treated the following day. Tumor cell colonies were counted after 10-12 days of culture. The times of exposure in these experiments are similar; however, the concentrations of FCS are 20% in the CFU-GM assay and 10% in the tumor cell clonogenic assays. The IC50's are calculated as described above for the MTT proliferation assays. (See Example 4).
(§3) To facilitate this comparison, a CFLI-GM toxicity index was calculated by dividing the CFU-GM IC50 by the respective tumor cell clonogenic IC50's in sensitive and resistant cells.

Another data set in a line: in vitro. The conditions noted are these: human. The protocol:
as §1, §2, §3

For data set [4], the system named is PKC. Nature of the data set: Micellar PKC screening assay. It is filed as biochemical. The text has this: The N-substituted diaminoanthraquinone, 1b, (1,4-bis-[[3'-(diethylamino)propyl]amino]anthraquinone), was identified as a PKC inhibitor in the micellar PKC screening assay and in platelets. […] Spectrophotometric analysis of 1b and lc indicated they were excellent chromophores with absorbance maxima at 648 and 600 nm in chloroform, respectively, and extinction coefficients of approximately 20,000. At these wavelengths, there was minimal absorbance by cellular components contained in the chloroform phase. These properties of 1b and 1c were utilized to determine the time course of accumulation of these compounds in MDR MCF7 Adr 10 cells.
The activities of 1a, 1b, 1c and 1d and mitoxantrone, an anthraquinone antineoplastic drug, were evaluated in vinblastine drug accumulation assays performed by the following method. […] Mitoxantrone was identified as a PKC inhibitor in miceliar PKC assays. Compound 1d (1,4-bis-[[2-(4-morpholino)ethyl]amino]anthraquinone) was only evaluated in cellular studies.

The subject of another data set is MCF7 WT. Nature of the data set: Tumor cell clonogenic assay, MCF7 WT. Format: cell-based, human. The conditions noted are these: Homo sapiens.
Data set [5] deals with MCF7 Adr 10 human breast cancer cells. Nature of the data set: Time course of accumulation of anthraquinones in cells. It is filed as cell-based. The conditions noted are these: 25 μM, 37° C., MCF7 Adr 10 cells. The protocol: METHOD: Near confluent monolayers of MCF7 ADR 10 were washed 2 times with Dulbecco's Phosphate Buffered Saline (DPBS) and 1 ml of Iscove's Modified Dulbecco's Medium (IMDM) was added to each well. The monolayers were treated with 25 μM 1b or 1c and incubated at 37° C. After incubating the samples for the times indicated in FIG. 1, the monolayers were washed three times with DPBS and detached using 1 ml of Trypsin-EDTA.An aliquot of the cell suspension was counted using a Coulter Counter and a 0.8 ml aliquot was extracted in a Bligh-Dyer extraction (Bligh et at., Can. J. Biochem. 31:911-916 (1959)). The absorbance of the lower chloroform phase was measured at 648 nm and 600 nm using a spectrophotometer. The amount of 1b or 1c present in the extract was quantitated from a standard curve performed in cell extracts. The data is expressed as nmol anthraquinone/10^6 cells.

The subject of data set [6] is MCF7 Adr 10. Nature of the data set: Tumor cell clonogenic assay, MCF7 ADR 10. Format: cell-based, human. The conditions noted are these: for IC50: Homo sapiens, NCI/ADR-RES, read-out: Continuous Exposure IC50, MCF7 ADR 10.
The test system of data set [7] is MCF7 Adr 10 human breast cancer cells. As to the kind of experiment: Vinblastine accumulation assay, MCF7 Adr 10. Format: cell-based. Here is the method:
[^3 H] vinblastine ([^3 H] VLB) was added to a final concentration of 100 nM and the cells were incubated for 2.5 hours. At this time, the cells were washed 3 times in ice cold PBS and lysed in buffer containing 0.1% Triton X-100. Net accumulation of [^3 H] vinblastine was expressed as pmol/mg protein. In [^3 H]

The conditions of data set [8]: clinical trials; cited from earlier work.
A further data set concerns MDR cell lines. The conditions noted are these: literature; cited from earlier work.
For data set [9], the system named is P-glycoprotein. The conditions noted are these: cited from earlier work.
Data set [10] deals with P-glycoprotein. The conditions noted are these: intact MDR cells and MDR membrane vesicles; cited from earlier work.
In the next data set the test system is patients. The conditions noted are these: human, in vivo; cited from earlier work.
Data set [11] has as its system intrinsically resistant renal cell carcinoma cell lines. The conditions noted are these: cited from earlier work.
In data set [12] the target is P-glycoprotein in MCF7 Adr 10 membrane vesicles (Homo sapiens, UniProt P08183). The conditions noted are these: MCF7 Adr 10 vesicles.
P-glycoprotein in MCF7 Adr 10 membrane vesicles, sequence (P08183 whole entry): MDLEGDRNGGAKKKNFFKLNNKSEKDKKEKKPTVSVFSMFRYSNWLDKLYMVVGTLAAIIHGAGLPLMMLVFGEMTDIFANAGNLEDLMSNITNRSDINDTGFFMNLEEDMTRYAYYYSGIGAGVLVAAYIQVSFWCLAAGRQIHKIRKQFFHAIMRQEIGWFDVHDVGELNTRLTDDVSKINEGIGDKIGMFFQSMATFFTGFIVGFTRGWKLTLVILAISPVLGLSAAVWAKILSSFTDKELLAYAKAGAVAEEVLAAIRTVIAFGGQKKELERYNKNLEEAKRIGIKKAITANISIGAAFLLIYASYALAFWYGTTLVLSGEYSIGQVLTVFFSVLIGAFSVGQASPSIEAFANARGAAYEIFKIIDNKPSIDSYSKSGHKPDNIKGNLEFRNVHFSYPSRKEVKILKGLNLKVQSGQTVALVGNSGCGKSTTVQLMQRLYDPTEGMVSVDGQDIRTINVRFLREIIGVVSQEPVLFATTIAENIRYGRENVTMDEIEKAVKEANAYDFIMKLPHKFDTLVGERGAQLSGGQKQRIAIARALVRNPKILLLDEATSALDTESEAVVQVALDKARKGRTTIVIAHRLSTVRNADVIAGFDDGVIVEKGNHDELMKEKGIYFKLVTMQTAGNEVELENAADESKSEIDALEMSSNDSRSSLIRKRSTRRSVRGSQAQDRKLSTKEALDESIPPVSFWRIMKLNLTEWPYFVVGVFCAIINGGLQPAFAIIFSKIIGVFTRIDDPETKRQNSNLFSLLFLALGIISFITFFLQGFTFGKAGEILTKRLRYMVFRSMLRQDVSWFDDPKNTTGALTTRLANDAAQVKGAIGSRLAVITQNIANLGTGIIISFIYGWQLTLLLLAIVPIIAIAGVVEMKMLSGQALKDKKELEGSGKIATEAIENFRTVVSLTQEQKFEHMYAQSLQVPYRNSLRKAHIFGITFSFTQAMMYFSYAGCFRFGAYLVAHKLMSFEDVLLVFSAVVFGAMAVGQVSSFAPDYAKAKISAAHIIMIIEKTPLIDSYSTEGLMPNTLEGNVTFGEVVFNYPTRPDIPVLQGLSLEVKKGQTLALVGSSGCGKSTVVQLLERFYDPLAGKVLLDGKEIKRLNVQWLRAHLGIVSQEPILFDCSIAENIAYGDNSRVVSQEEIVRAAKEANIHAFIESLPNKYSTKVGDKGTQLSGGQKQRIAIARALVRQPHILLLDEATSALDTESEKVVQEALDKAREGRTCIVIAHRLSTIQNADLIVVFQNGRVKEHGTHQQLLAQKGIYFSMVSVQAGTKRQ
Data set [13] relates to renal cell carcinoma cell lines, A704, SKRC7 and UOK-39.
Data set [14] concerns MCF7 Adr 10. As to the kind of experiment: 72 hour MTT proliferation assay, reversal of drug resistance in MCF7 Adr 10. Format: cell-based, human. The conditions noted are these: [1c] 0 μM. Here is the method: In 72 hour MTT proliferation assays using the following method, compounds 1b, 1c and 1d were assessed for inhibition of Vinca alkaloid and anthracycline drug resistance in MDR MCF7. Additionally, compounds 1b and 1c were assessed for potentiation of sensitivity to Vinca alkaloid and anthracycline drugs in the parental MCF7 WT cell line.
METHOD: 5000 cells per well were plated in 100 μl of IMDM containing 10% FCS and allowed to adhere overnight. The following day the cells were treated with N-substituted 1,4-diaminoanthraquinones and exposed to graded concentrations of antineoplastic agents. 50 μl of IMDM 10% FCS containing either vehicle or N-substituted 1,4-diaminoanthraquinones at 3 times the final tested concentration was added to cells at timed intervals. The plates were incubated for 2 hours at 37° C. to allow maximal cellular accumulation of N-substituted 1,4-diaminoanthraquinones. 40 μl aliquots of IMDM 10% FCS containing either vehicle or graded concentrations of antineoplastic drugs at 5 times the final concentration were added to treatment groups. Following this addition, 10 μl of IMDM 10% FCS containing either vehicle or N-substituted 1,4-diaminoanthraquinone at 5 times the final concentration was added to each group of wells. The cells were incubated for 72 hours after treatment. At this time the viable cells in each treatment group were estimated in a colorimetric assay by adding MTT and incubating the cells at 37° C. for 3-4 hours. The media in each well was aspirated and MTT formazan was solubilized in isopropyl alcohol acidified with 0.1 N HCl. The absorbance of the solubilized formazan was quantitated using a plate reader spectrophotometer. […] The concentrations of antineoplastic drugs which inhibited proliferation by 50% (IC50's) were estimated by calculating a percentage from the ratio: antineoplastic drug treated groups/control group absorbance and plotting the dose response curve on semilog paper. The IC50 was estimated from this curve. To assess the effects of inhibition of resistance by N-substituted 1,4-diaminoanthraquinones, the percentages were calculated relative to cell groups treated with resistance modifier alone and IC50's calculated as above. A reversal factor was calculated by dividing the IC50 to the antineoplastic drug alone (Control group) by the IC50 to antineoplastic drug in cells treated with resistance modifier.
(In general: Tetrazolium assays rely on reduction of a dye to a coloured formazan, in cell work by metabolically active cells.)

[15] abbreviates: cfu-gm vs mcf7, CFU-GM toxicity indices.

Experimental for MCF7 WT: The tumor cell clonogenic assays measure clonal proliferation of tumor cells. In this assay, 300-500 cells are plated in 10 cm^2 wells, allowed to adhere overnight, and are treated the following day. Tumor cell colonies were counted after 10-12 days of culture. […] The IC50's are calculated as described above for the MTT proliferation assays.

Usually IC50 stands for the concentration that inhibits the measured activity by half. `CCN(CC)CCCNc1ccc(NCCCN(CC)CC)c2c1C(=O)c1ccccc1C2=O` [Compound 1b, 1,4-bis-[[3'-(diethylamino)propyl]amino]anthraquinone]: in data set [1], the “blue color partitioning with cellular phospholipids in the lower chloroform phase” value was > 95%. In the data set on PKC [2], the “PKC inhibition in platelets” value is “PKC inhibitor”. Also, the IC50 in data set [3] turned out to be 1400 nM; in the data set with MCF7 WT (MCF7, tumor cell clonogenic assay, 10-12 days, read-out: Continuous Exposure IC50, MCF7 WT), 400 nM; with MCF7 Adr 10 [6] (tumor cell clonogenic assay, 10-12 days) it was 700 nM. In addition, the “CFU-GM Toxicity Index (CFU-GM IC50 / Tumor Cell Clonogenic IC50)” value in data set [3] (human) is listed as 2.0. For the same compound, the selectivity ratio in the data set “in vitro” (CFU-GM Toxicity Index (CFU-GM IC50 / Tumor Cell Clonogenic IC50)) is 3.5; in the data set “in vitro” (setting [15]), > 1; in “in vitro” (mcf7 vs cfu-gm, sensitivity of both tumor lines relative to CFU-GM) it was 2 to 3.5. Further, the “PKC activity in micellar PKC screening assay” value with PKC [4] was “PKC inhibitor”. Further, the “time of maximal accumulation of 1b and 1c” value in data set [5] is recorded as “about 2 hours”. The “relative sensitivity of MCF7 WT and MDR MCF7 to cytotoxicity” value with MCF7 Adr 10 [6] (clonogenic assays) is “MCF7 WT are more sensitive to cytotoxicity of 1b than MDR MCF7”. In addition, in data set [7] (Homo sapiens, NCI/ADR-RES, 100 nM [3H] VLB, 2.5 hours, FIGS. 2 and 3, read-out: lowest concentration which causes a doubling of basal accumulation of vinblastine), the minimal effective concentration is 25 µM. Besides, the “activity in vinblastine accumulation assay / drug accumulation” value in data set [7] (MDR MCF7) is given as “increase vinblastine accumulation in MDR MCF7”. Besides, the “drug accumulation relative to other PKC inhibitors” value in data set [7] (drug accumulation assays) is given as “significantly greater activity in drug accumulation assays than other PKC inhibitors”.

Consider `OCCN1CCN(CC/C=C2\c3ccccc3Sc3ccc(C(F)(F)F)cc32)CC1` [Trans-flupenthixol], for which the “antipsychotic potency relative to the cis isomer” value in data set [8] is given as “much less potent antipsychotic in clinical trials than the cis isomer”. For the same compound, the “drug accumulation and reversal of resistance in MDR cell lines” value in the data set on MDR cell lines is “increased doxorubicin accumulation and reversed the MDR phenotype more effectively in a number of MDR cell lines than verapamil”.

As to Cyclosporin A, the “inhibition of vincristine and vinblastine binding to P-glycoprotein” value with P-glycoprotein [9] is “competitively inhibits vincristine and vinblastine binding to the P-glycoprotein”. In addition, the “[3H] azidopine photoaffinity labeling of P-glycoprotein” value in the data set on P-glycoprotein [10] is “inhibit”.

In the case of `CC/C(=C(\c1ccccc1)c1ccc(OCCN(C)C)cc1)c1ccccc1` [tamoxifen], in the data set with patients, the toxicity in humans entry is recorded as “minimal neurologic toxicity that was reversible with cessation of tamoxifen”. Besides, the “drug accumulation and vinblastine resistance in renal cell carcinoma” value in [11] is “increase drug accumulation and decrease vinblastine resistance”. Moreover, in the data set on MDR cell lines, the “drug accumulation and reversal of resistance in MDR cell lines” value is listed as “can also modulate resistance of estrogen receptor-negative MDR cell lines”.

Regarding `CC[C@]1(O)C[C@@H]2CN(CCc3c([nH]c4ccccc34)[C@@](C(=O)OC)(c3cc4c(cc3OC)N(C)[C@H]3[C@@](O)(C(=O)OC)[C@H](OC(C)=O)[C@]5(CC)C=CCN6CC[C@]43[C@@H]65)C2)C1` [VLB, reference compound], the “effect of unlabeled VLB on [3H] VLB association” value in data set [12] is recorded as “inhibited by addition of unlabeled VLB”. For the same compound, the “vinblastine IC50 in renal lines relative to vinblastine IC50 of sensitive MCF7” value in [13] is listed as 10-600 fold. Further, the “toxicity to CFU-GM relative to drug sensitive WT cancer cells” value in data set [3] is listed as “approximately twice as toxic to CFU-GM”. Moreover, the half-maximal inhibitory concentration (IC50) in data set [3] is 0.28 nM; in the data set with MCF7 Adr 10 [14] (Homo sapiens, NCI/ADR-RES, average ± SD of 3 experiments, read-out: VLB IC50) it was 790 nM; with MCF7 WT (MCF7, read-out: Continuous Exposure IC50, MCF7 WT), 0.59 nM; in the data set on MCF7 Adr 10 [6] it was 210 nM. Besides, the selectivity ratio is < 1 in “in vitro” (setting [15]) and ~1000 in “in vitro” (cfu-gm vs mcf7 adr 10, toxicity to CFU-GM relative to MDR cells). Further, the “Reversal Factor (VLB)” value in the data set on MCF7 Adr 10 [14] was determined as 1.0.
